From US20040014814A1, “Compositions and methods for delaying preventing rejuvenating or reversing senescence in cells” (priority 2000, published 2004)

Tests used:
MRC-5 cells [1] = assay: Lifespan (population doublings) of MRC-5 cells in culture; type: cell-based, human; set-up: key to Lifespan extension: 0 = zero effect; 10 = maximum effect; conditions: for Lifespan of MRC-5 cells in culture, Population Doublings (PD): commenced at passage 55; for Lifespan extension: summary grade
Procedure: Cultures were split in a 1:4 ratio when flasks were approximately 70-80% confluent.
(§1) MRC -5 cells (fetal lung fibroblasts) were grown in Dulbecco's modification of Eagles' minimum essential medium (DMEM Gibco BRL Cat. No. 12800-017) containing 0.45% glucose, or MEM (Gibco BRL Cat. No. 612800-017) containing 0.1% glucose. Both media contained 10% fetal calf scrum (TRACE Biosciences Cat. No. 15-010-0500V) and Penicillin/Streptomycin 5000 IU, 5000 μg/ml (TRACE Biosciences Cat. No. 21-140-0100V). Cells were grown in […] flasks or in dishes (35 mm or 60 mm, Nunc) at 37° C. with 5% CO2. Cells were harvested with trypsin (TRACE Biosciences Cat. No. 21-163-0100V) and counted with a model ZF6 Coulter Counter. Cells were split in ratios of 1:2 or 1:4. Population doublings (PDs) were calculated from the ratio of the initial number of cells plated to the yield of cells after a period of time. This provides an accurate measure of cell growth, with the split ratios 1:2 and 1:4 corresponding to one and two passages respectively, which are broadly equivalent to population doublings. The media was changed every 5 days or when cells became confluent.
(§2) MRC-5 cells were used to observe the toxicity of a series of derivatives of carnosine on cell growth. Cell cultures were grown in DMEM media with 10% fetal calf serum and supplemented with the following carnosine analogues: carnosine ethyl ester, carnosine iso-propyl ester, carnosine n-butyl ester, carnosine n-hexyl ester, N-propyl carnosine, N-hexanoyl carnosine, N-trimethyl acetyl carnosine, N-acetyl carnosine methyl ester, N-acetyl carnosine ethyl ester and N-acetyl carnosine, at concentrations ranging between 1 mM to 20 mM. Cells were also grown in DMEM supplemented with carnosine at 20 mM. […] Even at lower concentrations cell morphology was that of cells that have reached senescence i.e. broad flat cells with long process reaching out to other cells. Cell numbers were less than in the control flasks. […] As shown in FIG. 1 Acetyl-carnosine achieved a lifespan 5 PDs greater than the control and 6.7 PDs greater than carnosine over a 43 day period. […] In the early phase of the experiment growth rates were markedly greater than with the other compounds (FIG. 1).
In fact all populations of MRC-5 cells grown in DMEM supplemented with acetyl-carnosine preserved a younger phenotype for much longer than cells grown in DMEM supplemented with carnosine or its analogues.
Under control conditions the range was 57.3-64.5 PDs (n=5). With the addition of carnosine (20mM) to the medium the range was 61.8-63.7 PDs (n=5) with an average increase of 1.4 PDs which represents a 3 fold increase in cell number. However, when acetyl-carnosine (5 mM) was added to the medium, the range was 62.3-70.3 PDs (n=5) with an average increase of 5 PDs compared with the controls. This represents a 32 fold increase in cell number.

MRC-5 cells [2] = assay: Effect of carnosine derivatives on cell growth / toxicity in MRC-5 cell cultures; type: cell-based, human; set-up: key to Effect on cell growth (score): (0) Toxic to cell growth; (10) Confluent cell growth; conditions: for Effect on cell growth (score): MRC-5 cells, scale 0 toxic to 10 confluent; for Cell Growth: summary grade
Procedure: as §1
as §2, with “at concentrations ranging between 1 mM to 20 mM.” left out

MRC-5 cells [3] = assay: Uptake of radio-labeled (3H) compounds by MRC-5 fibroblast cells; conditions: MRC-5 cells, after 48 hours
Procedure: For MRC-5 cells, (3H)—carnosine and acetyl carnosine were added to the medium of near confluent 60mm culture dishes. At different time points cells were washed three times with phosphate buffered saline, cells harvested and cell-associated radioactivity determined using Packard Starscint scintillation fluid.
The rate of uptake of carnosine and acetyl-carnosine by MRC-5 cells was studied using radio-labeled tritiated (3H) carnosine and acetyl-carnosine compounds. The uptake was measured in MRC-5 cells at passage 28 over a 48 hour period (FIG. 3A).

senescent MRC-5 cells = conditions: 20 mM; PCT/AU91/00541; cited from earlier work
corneal epithelial cells = assay: Uptake of radio-labeled (3H) compounds in fresh bovine eyes (corneal epithelium into aqueous humour); type: in vitro ADME; conditions: after 4 hours
Procedure: Radio-labeled (3H) carnosine and acetyl-carnosine were assayed for their rate of uptake using fresh bovine eyes and MRC-5 fibroblast cultures. For bovine eyes small cylinders (radius 3.5mm and height 8mm) placed on top of the eye formed a fix seal with the corneal epithelial cells. 200 microlitres of the radio-labeled compounds in 5mM unlabeled compound in phosphate buffered saline were instilled onto the eye and at different time points 600 μl of aqueous humour was aspirated using a 25 gauge needle for counting in the scintillation counter.
The uptake experiments were repeated using fresh bovine eyes.

[4] = test system: UV-Induced Immuno-suppression; set-up: key: 0 = zero effect; 10 = maximum effect; conditions: footnote (3) Australian provisional PQ 5150; cited from earlier work
MRC-5 cells [5] = test system: MRC-5 cells; set-up: Cell and eye uptake assay: key to the marks not given beside the values
[6] = Fate of compound after cellular uptake; type: cell-based; conditions: compared with acetyl-carnosine
Procedure: Experiments were conducted to determine the fate of acetyl-carnosine and carnosine after cellular uptake. […] A slower metabolism and incorporation into other proteins may be one reason for acetyl-carnosine having higher effective intracellular concentrations compared with carnosine despite its lower overall uptake.

MRC-5 cells [7] = conditions: carnosine supplemented media; cited from earlier work
human blood peptidases = assay: Stability in human blood serum / attack by human blood peptidases; type: in vitro ADME; conditions: human blood serum

Compound	Lifespan of MRC-5 cells in culture, Population Doublings (PD) (MRC-5 cells [1]; 5 mM)	Lifespan extension (MRC-5 cells [1])	Effect on cell growth (score) (MRC-5 cells [2]; 0.5 mM)	Effect on cell growth (score) (MRC-5 cells [2]; 1 mM)	Effect on cell growth (score) (MRC-5 cells [2]; 2 mM)	Effect on cell growth (score) (MRC-5 cells [2]; 5 mM)	Effect on cell growth (score) (MRC-5 cells [2]; 10 mM)	Effect on cell growth (score) (MRC-5 cells [2]; 20 mM)	Cell Growth (MRC-5 cells [2])	further results
CCCCCC(=O)NCCC(=O)N[C@@H](Cc1c[nH]cn1)C(=O)O [N-hexanoyl carnosine]	10.8	0	6	6	5	4	3	3	–	–
CCOC(=O)C(Cc1cnc[nH]1)NC(=O)CCNC(C)=O (centres unmarked) [N-acetyl carnosine ethyl ester]	–	–	6	5	4	4	2	0	–	–
CC(C)OC(=O)[C@H](Cc1cnc[nH]1)NC(=O)CCN [Carnosine iso-propyl ester, carnosine iso-propyl ester]	–	–	–	–	2	0	0	0	TOXIC	–
CCOC(=O)[C@H](Cc1cnc[nH]1)NC(=O)CCN [Carnosine ethyl ester, carnosine ethyl ester]	–	–	–	–	5	5	4	3	–	–
CCCCCCOC(=O)[C@H](Cc1c[nH]cn1)NC(=O)CCN [carnosine n-hexyl ester]	–	–	–	–	3	1	0	0	TOXIC	–
CCCCOC(=O)[C@@H](Cc1cnc[nH]1)NC(=O)CCN [Carnosine n-butyl ester, carnosine n-butyl ester]	–	–	–	–	5	5	2	0	TOXIC	–
NCCC(=O)N[C@@H](Cc1cnc[nH]1)C(=O)O [Carnosine, β-alanyl-L-histidine, reference compound]	–	–	–	–	–	5	6	7	–	Number of cells growing in supplemented media (MRC-5 cells [3]): 2.4×10^6; Effect on senescent MRC-5 cells transferred to supplemented medium (senescent MRC-5 cells): rejuvenated; Uptake of (3H) compound into aqueous humour (corneal epithelial cells): 1.3%; Uptake relative to acetyl-carnosine (corneal epithelial cells): 2 times; UV immuno suppression: post irradiation assay (3) [4]: 0; Cell and eye uptake assay (MRC-5 cells [5]): ++++; Uptake of (3H) compound by MRC-5 cells (MRC-5 cells [5]; human, 48 h): 0.32%; Uptake relative to acetyl-carnosine (MRC-5 cells [5]; human, 48 h): 2 times; Incorporation of label into higher molecular weight proteins after uptake [6]: more rapidly incorporated into higher molecular weight proteins; Range of lifespans of populations of MRC-5 cells (MRC-5 cells [1]; 20 mM in medium, n=5): 61.8-63.7 PDs; Lifespan of MRC-5 cells in culture, Population Doublings (PD) (MRC-5 cells [1]; 20 mM): 8.5 PD; Average increase in lifespan compared with controls (MRC-5 cells [1]; 20 mM, n=5): 1.4 PDs; Increase in cell number (MRC-5 cells [1]; 20 mM, worked out from the PD increase): 3 fold; Increase in cell mass (MRC-5 cells [1]; cells exposed to supplemented media): 3 fold; Increase in cell mass reported by McFarland & Holliday (MRC-5 cells [7]): 12 fold; Stability in human blood serum (human blood peptidases): rapidly destroyed
COC(=O)C(Cc1cnc[nH]1)NC(=O)CCNC(C)=O (centres unmarked) [N-acetyl carnosine methyl ester]	–	–	6	6	5	5	5	0	–	–
CC(C)(C)C(=O)NCCC(=O)NC(Cc1cnc[nH]1)C(=O)O (centres unmarked) [N-trimethyl acetyl carnosine]	9.4	0	6	6	5	4	3	3	–	–
N-propyl carnosine	11.0	0	6	6	5	4	3	2	–	–
